Results published in patent publication US9493466B2, “Treatment of cancer with TOR kinase inhibitors” (Signal Pharmaceuticals, LLC, priority 2011, dated 2016).

Columns and labels:
Format in all cases: in vivo, human
DLBCL = assay: Phase 1/2 study Part B: tumor response, DLBCL; conditions: 11 evaluable patients
Description: (§1) In Part B, subjects may start Compound 1 at the MTD and/or a lower dose level based on safety, PK and PD data from Part A. Approximately 150 subjects will be treated and evaluated for safety and preliminary antitumor activity after every two cycles of therapy. Tumor types include non-small cell lung cancer (NSCLC), glioblastoma multiforme (GBM), hepatocellular carcinoma (HCC), gastrointestinal neuroendocrine tumor of non-pancreatic origin (NET), diffuse large B-cell lymphoma (DLBCL), multiple myeloma (MM), and hormone receptor positive breast cancer (HRPBC). Up to 20 subjects will be enrolled in each tumor type.
Subjects will be evaluated for efficacy every 2 cycles through cycle 6 and every 3 cycles thereafter. The primary efficacy variable is response. Tumor assessments, including imaging (CT, MRI and/or PET) of the chest and abdomen and other sites as appropriate, will be performed during Screening. Subjects with brain lesions will also have brain scans at Screening and during follow-up tumor assessments. After Screening, tumor assessments (for all tumors except multiple myeloma) will be performed on completion of Cycles 2, 4 and 6 (i.e., on Cycles 3, 5 and 7/Day 1±7 days) and then every 3 months thereafter (e.g., Cycle 10 and 13/Day 1±7 days). Tumor assessment (for multiple myeloma and only NHL/DLBCL with known or suspected marrow involvement) (bone marrow aspiration and biopsy, with PD biomarker analysis, cytogenetic analysis if abnormally present at Screening) will be performed on completion of Cycles 4, 8, 12 and 16 only (i.e., on Cycles 5, 9, 13 and 17/Day 1±7 days). Cytogenetics need not be repeated if normal at Screening. […] Subjects will be evaluated for tumor response on completion of Cycle 2, 4, 6, and so on. […]
(§2) For Part B, efficacy variables to be analyzed include tumor response at the end of treatment, the proportion of subject alive and progression-free, and duration of response. […]

[1] = test system: TORC1 (pS6, p4EBP1) and TORC2 (pAkt) pathways; assay: TOR pathway biomarker measurements in whole blood
Description: Parameters to be explored include mTOR biomarker inhibition in blood and tumor, histopathologic response, correlations with pharmacogenomic findings and percentage of inhibition of pAKT (Ser473), phospho-S6RP (Ser235/236 and/or Ser240/244), phospho-4EB-P1 (Thr37/46), and/or other relevant biomarkers in peripheral blood samples and tumor, adverse events and clinical outcome. The pharmacodynamic (PD) measurements are incorporated in this study to evaluate target inhibition of mTORC1 and mTORC2 pathways, the consequences of such inhibition, and PK/PD relationships. In Parts A and B, biomarker analysis will involve measuring pAKT (mTORC2) in protein lysates derived from isolated platelets. Levels of p4EB-P1 and pS6RP (mTORC1), and pAKT (mTORC2), will be measured by flow cytometry using whole blood samples. Likewise, in Parts A and B, pAKT, p4EB-P1, p56, Ki67 and/or other relevant markers to assess Compound 1 activity will be measured in serial tumor biopsies from subjects with accessible disease when possible. The changes of each biomarker will be determined by comparing the levels of biomarkers in pre- and post-treatment samples and, where possible, correlate these with drug exposure in blood, and tissue if available, and tumor response over time. Full details of all statistical analyses and modeling for these outcomes will be described in the statistical analysis plan and final study report.
TOR Pathway Biomarker Measurements in Whole Blood. Blood samples received from clinical sites were aliquoted into a 96-deepwell plate and rested for 1 hour at 37° C. The samples were stimulated with anti-IgD and LPS for 15 minutes at 37° C. The red blood cells were lysed and the white blood cells were fixed with BD Lyse/Fix Buffer at a ratio of 15:1 buffer to blood for 10 minutes at 37° C. The plates were centrifuged, aspirated, and 1 mL of ice-cold methanol was added to the wells containing fixed white blood cells to permeabilize the cells for intracellular staining. The plates were stored overnight at −80° C. The plates were thawed, centrifuged, aspirated and washed twice with PBS+0.5% BSA. The cells were stained with antibodies specific for the surface markers CD3, CD14, and CD19, and for mTOR pathway markers, including pS6 (S235/236), p4EBP1 (T37/46), and pAKT (S473). The cells were washed twice with PBS and fixed with 1.6% PFA.
Sample analysis: The samples were analyzed on an 8 color cytometer. Control wells of 8-peak rainbow beads (Spherotech Libertyville, Ill.) were acquired at multiple points during sample acquisition. The median fluorescence intensity (MFI) was computed for each marker from the fluorescence intensity levels in T cells, B cells, and monocytes. The MFI were normalized using the 8-peak rainbow beads and presented as ERF (Equivalent number of Reference Fluorophores). ERFs were calculated from the MFIs using a linear regression transformation carried out on a log-log scale using the rainbow calibration particles with 8 intensities on 8 colors. The percent change from baseline for pS6, p4EBP1, and pAKT in stimulated and non-stimulated T cells, B cells, and monocytes was determined for each patient. The baseline value was an average of two visits (screening and cycle 1/day −1 at 0 hr pre-dose) when available.

MM = assay: Phase 1/2 study Part B: tumor response, MM; conditions: 11 evaluable patients, up to 9 cycles
Description: as §1
Subjects will be evaluated for efficacy every 2 cycles through cycle 6 and every 3 cycles thereafter. The primary efficacy variable is response. Tumor assessments, including imaging (CT, MRI and/or PET) of the chest and abdomen and other sites as appropriate, will be performed during Screening. Subjects with brain lesions will also have brain scans at Screening and during follow-up tumor assessments. […] Subjects will be evaluated for tumor response on completion of Cycle 2, 4, 6, and so on. […]
as §2

CO[C@H]1CC[C@H](N2C(=O)CNc3ncc(-c4ccc(C(C)(C)O)nc4)nc32)CC1 [Compound 1, 7-(6-(2-hydroxypropan-2-yl)pyridin-3-yl)-1-((1r,4r)-4-methoxycyclohexyl)-3,4-dihydropyrazino-[2,3-b]pyrazin-2(1H)-one]
best target lesions responses (reduction) (DLBCL): up to 75% | patients meeting Partial Response (RECIST 1.1) (DLBCL): 2 patients | patients meeting at least Stable Disease (RECIST 1.1) (DLBCL): 1 patient | inhibition of TORC1 and TORC2 biomarkers ([1]; Part A, doses of 30 mg and higher, up to 5 hours post first dose, stimulated blood): Consistent inhibition | TORC1 and TORC2 inhibition ([1]; Part B, DLBCL patients): observed in the first patient analyzed | TORC1 and TORC2 inhibition ([1]; Part B, GBM patients): observed in majority of patients | TORC1 and TORC2 inhibition ([1]; Part B, HCC patients): observed in majority of patients | TORC1 and TORC2 inhibition ([1]; Part B, MM patients): observed in 2 patients | TORC1 and TORC2 inhibition ([1]; Part B, NSCLC patients): observed in majority of patients | TORC1 and TORC2 inhibition (pAkt, p4EPB1) ([1]; Part B, all cohorts, blood, 1.5 h after dosing, Cycle 1 Day 1 and Day 15, P <0.001): inhibition was observed | tumor responses (IURCMM criteria) (MM): No tumor responses
